Source: paper PMC11491346, “Molecular insights and inhibitory dynamics of flavonoids in targeting Pim-1 kinase for cancer therapy” (Frontiers in Pharmacology, 2024)
pIC50: −log10 of the molar value.

Biological target: Pim-1 kinase (Homo sapiens, UniProt P11309)
Assay: luminescence-based kinase assay (ADP to ATP, Ultra-Glo Luciferase), Pim-1 assay
Format: biochemical
Conditions: for pIC50: in vitro enzyme inhibition, read-out: Pim-1 kinase inhibitory activity IC50; for class as Pim-1 kinase inhibitor (in words): Figures 10, 11 and 13
Text: Enzyme activity was quantified using a luminescence-based kinase assay, which tracks the conversion of ADP to ATP, subsequently producing light via Ultra-Glo™ Luciferase. This luminescence is indicative of ADP levels and thus, enzyme activity. This method is particularly effective for analyzing the influence of various chemicals on different kinases, serving both initial screenings and specificity profiling.
The inhibitory concentration (IC50) values, expressed in micromolar (μM), were obtained from the Pim-1 assay. These values were converted to their corresponding negative logarithmic scale (pIC50) to facilitate a linear comparison using the following formula: pIC50=−log10 IC50 in M Where IC50 values were first converted from μM to molar (M) units before logarithmic transformation. Pulling force values, measured in pN, were sourced from the SMD experiments.

Chain of Pim-1 kinase (P11309 whole entry): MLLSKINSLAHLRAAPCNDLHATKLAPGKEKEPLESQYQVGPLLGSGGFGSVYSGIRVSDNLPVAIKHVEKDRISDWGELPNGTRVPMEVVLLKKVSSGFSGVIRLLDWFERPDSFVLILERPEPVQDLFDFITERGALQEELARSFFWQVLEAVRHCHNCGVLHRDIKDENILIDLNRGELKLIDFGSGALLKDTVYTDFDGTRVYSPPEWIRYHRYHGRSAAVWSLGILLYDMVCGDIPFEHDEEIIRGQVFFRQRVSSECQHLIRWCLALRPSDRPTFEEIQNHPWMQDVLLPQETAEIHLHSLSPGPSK

Row | SMILES | pIC50 | also measured
1 | O=c1cc(-c2ccccc2)oc2cc(O)c(O)c(O)c12 [Compound 7] | 5.25 | 
2 | O=c1c(O)c(-c2ccccc2)oc2cc(O)cc(O)c12 [Compound 8, Galangin] | 5.74 | 
3 | O=c1cc(-c2ccccc2)oc2ccc(O)cc12 [6-Hydroxyflavone] |  | class as Pim-1 kinase inhibitor (in words): could not inhibit Pim-1 kinase activity
4 | O=c1cc(-c2ccc(O)c(O)c2)oc2cc(O)cc(O)c12 [Compound 11] | 5.33 | 
5 | O=c1c(O)c(-c2ccc(O)cc2)oc2cc(O)cc(O)c12 [Compound 9, Kaempferol] | 5.75 | 
6 | O=c1cc(-c2ccccc2)oc2cc(O)cc(O)c12 [Compound 6] | 5.27 | 
7 | O=c1c(O)c(-c2ccccc2)oc2ccccc12 [Compound 4, 3-Hydroxyflavone] | 4.45 | 
8 | O=c1cc(-c2ccccc2)oc2cccc(O)c12 [5-Hydroxyflavone] |  | class as Pim-1 kinase inhibitor (in words): could not inhibit Pim-1 kinase activity
9 | O=c1cc(-c2ccc(O)cc2)oc2cc(O)cc(O)c12 [Compound 10] | 5.28 | 
10 | O=c1cc(-c2ccccc2)oc2cc(O)ccc12 [7-Hydroxyflavone] |  | class as Pim-1 kinase inhibitor (in words) (listed as 7-ydroxyflavone): could not inhibit Pim-1 kinase activity
